For 24 compounds, T/C results are on record in PubChem BioAssay AID256 (DTP/NCI, 2004).

This experiment deals with CD2F1 mice, L1210 leukemia ip, survival T/C. Description: NCI In Vivo Anticancer Drug Screen. Data for tumor model L1210 Leukemia (intraperitoneal) in CD2F1 (CDF1) mice. The note with it: higher = longer survival. The procedure, abridged:
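Compound-dosed mice with transplantable tumor versus matched vehicle controls; endpoint ratio T/C reported.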

Setting [1] is: endpoint: mean survival time, dose: 100.0 mg/kg/injection, schedule: Q01DX009 (ip), vehicle: saline with Tween-80.
Setting [2] is: endpoint: mean survival time, dose: 200.0 mg/kg/injection, schedule: Q01DX009 (ip), vehicle: saline with Tween-80.
[3] abbreviates: endpoint: mean survival time, dose: 100.0 mg/kg/injection, schedule: Q04DX002 (ip), vehicle: saline with Tween-80.
The mark [4] stands for this setting: endpoint: mean survival time, dose: 200.0 mg/kg/injection, schedule: Q04DX002 (ip), vehicle: saline with Tween-80.
The mark [5] stands for this setting: endpoint: mean survival time, dose: 400.0 mg/kg/injection, schedule: Q04DX002 (ip), vehicle: saline with Tween-80.
The mark [6] stands for this setting: endpoint: mean survival time, dose: 100.0 mg/kg/injection, schedule: Q01DX001 (ip), vehicle: saline with Tween-80.
Setting [7] is: endpoint: mean survival time, dose: 100.0 mg/kg/injection, schedule: Q01DX001 (ip), vehicle: saline.
The mark [8] stands for this setting: endpoint: mean survival time, dose: 200.0 mg/kg/injection, schedule: Q01DX001 (ip), vehicle: saline.
Setting [9] is: endpoint: mean survival time, dose: 100.0 mg/kg/injection, schedule: Q04DX003 (ip), vehicle: saline with Tween-80.
Setting [10] is: endpoint: mean survival time, dose: 200.0 mg/kg/injection, schedule: Q04DX003 (ip), vehicle: saline with Tween-80.
The mark [11] stands for this setting: endpoint: mean survival time, dose: 400.0 mg/kg/injection, schedule: Q04DX003 (ip), vehicle: saline with Tween-80.
The mark [12] stands for this setting: endpoint: mean survival time, dose: 100.0 mg/kg/injection, schedule: Q04DX003 (ip), vehicle: saline.
Setting [13] is: endpoint: mean survival time, dose: 200.0 mg/kg/injection, schedule: Q04DX003 (ip), vehicle: saline.
[14] abbreviates: endpoint: mean survival time, dose: 400.0 mg/kg/injection, schedule: Q04DX003 (ip), vehicle: saline.

Where “and” joins values, the source holds several entries; their conditions need not be identical. Identical values can stand only once. Inconclusive results and toxic doses are left out.

On to `COc1c(NC(C)=O)cc2c(c1C)OC(C)(C)C=C2`, for which the T/C is 101 % of control under setting [1] and 98 % of control under setting [2].
On to `Brc1ccc2sc3ccccc3c2c1`, for which the T/C under setting [3] is 102 % of control, the T/C under setting [4] was 89 % of control and the T/C under setting [5] is 91 % of control.
As to `Nc1nc(=O)n(CCCOc2ccc(Cl)cc2)cc1-c1ccccc1`, the T/C was 98 % of control under setting [6]; 101 % of control (endpoint: mean survival time, dose: 200.0 mg/kg/injection, schedule: Q01DX001 (ip), vehicle: saline with Tween-80); 88 % of control (endpoint: mean survival time, dose: 400.0 mg/kg/injection, schedule: Q01DX001 (ip), vehicle: saline with Tween-80).
As to `CCCCCCC(O)C[N+](=O)[O-]` (stereo not given), the T/C runs as follows: (endpoint: mean survival time, dose: 50.0 mg/kg/injection, schedule: Q01DX009 (ip), vehicle: saline with Tween-80) 96 % of control; under setting [2], 100 % of control.
Take `C=C1CC2C=CC1C2` (stereo not given) (tested in a mixture with another compound): the T/C (endpoint: mean survival time, dose: 80.5 mg/kg/injection, schedule: Q01DX009 (ip), vehicle: saline with Tween-80) was 90 % of control.
Regarding `Cc1cc(Cl)ccc1NC(=O)Nc1c(Oc2ccc(Cl)cc2)ccc(Cl)c1S(=O)(=O)O`, the T/C is, setting by setting: under setting [7], 96 % of control; under setting [8], 98 % of control.
For the compound `NCCC(=O)O`, the T/C is, setting by setting: under setting [1], 98 % of control; under setting [9], 89 % of control; under setting [2], 97 % of control; under setting [10], 104 % of control; (endpoint: mean survival time, dose: 400.0 mg/kg/injection, schedule: Q01DX009 (ip), vehicle: saline with Tween-80) 97 % of control; under setting [11], 98 % of control.
For the compound `CN(C)CC(N)C(=O)O` (stereo not given), the T/C reads like this: (endpoint: mean survival time, dose: 50.0 mg/kg/injection, schedule: Q04DX002 (ip), vehicle: saline) 89 % of control; (endpoint: mean survival time, dose: 100.0 mg/kg/injection, schedule: Q04DX002 (ip), vehicle: saline) 92 % of control.
For `COP(=O)(O)c1ccccc1` (tested in a mixture with another compound), the T/C by setting is: under setting [12], 103 % of control; under setting [13], 106 % of control; under setting [14], 95 % of control.
The corresponding values for `O=S1(=O)CC2(N3CCOCC3)CCCCC21` (stereo not given) are 100 % of control, 102 % of control and 104 % of control.
As for `CCCCCCCCCCC(O)CCCCCCCCCC`, the T/C was 100 % of control under setting [9], 90 % of control under setting [10] and 90 % of control under setting [11].
Regarding `COc1cc2c(c(OC)c1OC)-c1ccc(OC)c(=O)cc1[C@@H](N)CC2`, the T/C (endpoint: median survival time, dose: 1.5 mg/kg/injection, schedule: Q01DX009 (ip), vehicle: saline) was 120 % of control.
`NC(=O)c1cn(C2OC(CO)C(O)C2O)c2nc(N)nc(N)c2c1=O` (stereo not given): the T/C was 104 % of control (endpoint: mean survival time, dose: 12.5 mg/kg/injection, schedule: Q01DX005 (ip), vehicle: water); 104 % of control (endpoint: mean survival time, dose: 25.0 mg/kg/injection, schedule: Q01DX005 (ip), vehicle: water); 104 % of control (endpoint: mean survival time, dose: 50.0 mg/kg/injection, schedule: Q01DX005 (ip), vehicle: water); 124 % of control (endpoint: mean survival time, dose: 100.0 mg/kg/injection, schedule: Q01DX005 (ip), vehicle: water); 103 % of control and 107 % of control (endpoint: median survival time, dose: 50.0 mg/kg/injection, schedule: Q01DX005 (ip), vehicle: saline with Tween-80); 105 % of control and 110 % of control (endpoint: median survival time, dose: 100.0 mg/kg/injection, schedule: Q01DX005 (ip), vehicle: saline with Tween-80). In addition, the T/C was 115 % of control and 106 % of control (endpoint: median survival time, dose: 200.0 mg/kg/injection, schedule: Q01DX005 (ip), vehicle: saline with Tween-80); 117 % of control (endpoint: median survival time, dose: 400.0 mg/kg/injection, schedule: Q01DX005 (ip), vehicle: saline with Tween-80).
Consider `Cc1c(O)c(=O)n(-c2ccccc2)n1C`, for which the T/C reads like this: under setting [9], 96 % of control; under setting [10], 93 % of control; under setting [11], 96 % of control.
With `CCN(CC)C1=C(Cl)C(=O)C(=O)c2cccnc21`, the T/C (endpoint: mean survival time, dose: 9.4 mg/kg/injection, schedule: Q01DX009 (ip), vehicle: saline) was 101 % of control.
With `CCCCCCCCCCCCCCCC(=O)Nc1c(C)cccc1C`, the T/C by setting is: under setting [3], 100 % of control; under setting [4], 91 % of control; under setting [5], 95 % of control.
Consider `C1CCC(CCC2CCCC[N-]2)[N-]C1.[I][Zn][I]` (stereo not given), for which the T/C is, setting by setting: (endpoint: mean survival time, dose: 25.0 mg/kg/injection, schedule: Q01DX001 (ip), vehicle: saline with Tween-80) 107 % of control; (endpoint: mean survival time, dose: 50.0 mg/kg/injection, schedule: Q01DX001 (ip), vehicle: saline with Tween-80) 86 % of control; under setting [6], 86 % of control; under setting [7], 103 % of control; under setting [8], 100 % of control.
Regarding `O=P(O)(NCCCl)NCCCl`, the T/C by setting is: under setting [7], 404 % of control; under setting [8], 488 % of control; (endpoint: median survival time, dose: 25.0 mg/kg/injection, schedule: Q01DX001 (ip), vehicle: saline with Tween-80) 116 % of control; (endpoint: median survival time, dose: 50.0 mg/kg/injection, schedule: Q01DX001 (ip), vehicle: saline with Tween-80) 160 % of control; (endpoint: median survival time, dose: 75.0 mg/kg/injection, schedule: Q01DX001 (ip), vehicle: saline) 356 % of control; (endpoint: median survival time, dose: 100.0 mg/kg/injection, schedule: Q01DX001 (ip), vehicle: saline with Tween-80) 160 % of control and 185 % of control. The T/C (endpoint: median survival time, dose: 100.0 mg/kg/injection, schedule: Q01DX001 (ip), vehicle: saline) is 232 % of control and 410 % of control; the T/C (endpoint: median survival time, dose: 100.0 mg/kg/injection, schedule: Q01DX001 (iv), vehicle: saline) was 219 % of control; the T/C (endpoint: median survival time, dose: 125.0 mg/kg/injection, schedule: Q01DX001 (ip), vehicle: saline) is 202 % of control; the T/C (endpoint: median survival time, dose: 150.0 mg/kg/injection, schedule: Q01DX001 (ip), vehicle: saline) is 205 % of control; the T/C (endpoint: median survival time, dose: 150.0 mg/kg/injection, schedule: Q01DX001 (iv), vehicle: saline) was 86 % of control; the T/C (endpoint: median survival time, dose: 200.0 mg/kg/injection, schedule: Q01DX001 (ip), vehicle: saline with Tween-80) is 191 % of control.
`c1cc(-c2cc3ccc(C4=NCCN4)cc3[nH]2)ccc1C1=NCCN1`: the T/C is 111 % of control (endpoint: mean survival time, dose: 3.12 mg/kg/injection, schedule: Q01DX009 (ip), vehicle: saline); 112 % of control (endpoint: mean survival time, dose: 3.12 mg/kg/injection, schedule: Q01DX009 (ip), vehicle: suspension in saline); 124 % of control (endpoint: mean survival time, dose: 6.25 mg/kg/injection, schedule: Q01DX009 (ip), vehicle: saline); 118 % of control (endpoint: mean survival time, dose: 6.25 mg/kg/injection, schedule: Q01DX009 (ip), vehicle: suspension in saline); 119 % of control (endpoint: mean survival time, dose: 12.5 mg/kg/injection, schedule: Q01DX009 (ip), vehicle: saline); 283 % of control (endpoint: mean survival time, dose: 12.5 mg/kg/injection, schedule: Q01DX009 (ip), vehicle: suspension in saline). The T/C was 295 % of control and 336 % of control and 337 % of control (endpoint: mean survival time, dose: 25.0 mg/kg/injection, schedule: Q01DX009 (ip), vehicle: suspension in saline); 88 % of control (endpoint: mean survival time, dose: 50.0 mg/kg/injection, schedule: Q01DX009 (ip), vehicle: saline).
Turning to `COc1cc2ccnc(Nc3ccccc3)c2cc1OC`, the T/C was 95 % of control under setting [3], 95 % of control under setting [4] and 87 % of control under setting [5].
For the compound `O=C(N/N=C/c1ccc2c(c1)CCC2)c1ccc([N+](=O)[O-])cc1`, the T/C was 95 % of control under setting [9], 89 % of control under setting [10] and 98 % of control under setting [11].
In the case of `O=C(O)C1C2C/C(=N\O)C(C2)C1C(=O)O` (stereo not given), the T/C was 94 % of control (endpoint: mean survival time, dose: 50.0 mg/kg/injection, schedule: Q04DX003 (ip), vehicle: saline); 101 % of control under setting [12]; 103 % of control under setting [13].
On to `N=C1N(c2ccccc2)CCN1c1ccccc1`, for which the T/C reads like this: (endpoint: mean survival time, dose: 6.25 mg/kg/injection, schedule: Q04DX003 (ip), vehicle: saline with Tween-80) 94 % of control; (endpoint: mean survival time, dose: 12.5 mg/kg/injection, schedule: Q04DX003 (ip), vehicle: saline with Tween-80) 92 % of control.
Consider `O=c1c2cccc3cccc(c32)c2c3c(nn12)CCCC3`, for which the T/C (endpoint: mean survival time, dose: 12.5 mg/kg/injection, schedule: Q04DX002 (ip), vehicle: saline with Tween-80) is 102 % of control; the T/C (endpoint: mean survival time, dose: 25.0 mg/kg/injection, schedule: Q04DX002 (ip), vehicle: saline with Tween-80) was 98 % of control; the T/C (endpoint: mean survival time, dose: 50.0 mg/kg/injection, schedule: Q04DX002 (ip), vehicle: saline with Tween-80) is 94 % of control.
